Assay results reported in US7514254B2, “Plant-derived alkaline alpha-galactosidase” (The State of Israel, Ministry of Agriculture & Rural …, priority 1998, dated 2009).

Tests used:
[1] = test system: melon (Cucumis melo) fruit acid form alpha-galactosidase; test: Substrate kinetics (Lineweaver-Burk) of acid alpha-galactosidase; format: biochemical, muskmelon (Cucumis melo L. cv C-8)
Method: For routine analysis and monitoring the activity in the purification steps, alpha-galactosidase was assayed as described by Smart and Pharr (“Characterization of alpha-galactosidase from cucumber leaves”, Plant Physiology, 66:731-734, 1980), using p-nitrophenyl alpha-galactoside (pNPG) as substrate. […] The reaction was terminated after 10 min by adding 1 ml of 5% (w/v) Na2CO3 and activity expressed as nmol nitrophenol per min as measured at 410 nm. […] The assay was started by adding 50 μl enzyme preparation at 35 C and terminated after 10 to 20 min by 2 min boiling. […] For the partial purification of the acid form of alpha-galactosidase the fractions active at pH 5.5 were pooled and concentrated by reverse dialysis against solid sucrose. […] The active fractions were then desalted by dialysis against buffer A for 12 hours with two changes of the buffer. This enzyme fraction was used for the characterization of the acidic form of alpha-galactosidase. […] The substrate specificity of the alpha-galactosidases was tested with pNPG, stachyose, raffinose, melibiose or guar gum (Sigma).

[2] = target: T1, melon (Cucumis melo) fruit alkaline alpha-galactosidase Form II (Cucumis melo, UniProt Q84NI6); test: Substrate kinetics (Lineweaver-Burk) of alkaline alpha-galactosidase Form II; format: biochemical, muskmelon (Cucumis melo L. cv C-8)
T1 construct: native 102 kDa, denatured 92 kDa; assayed at pH 7.5
T1 sequence (Q84NI6 1-772): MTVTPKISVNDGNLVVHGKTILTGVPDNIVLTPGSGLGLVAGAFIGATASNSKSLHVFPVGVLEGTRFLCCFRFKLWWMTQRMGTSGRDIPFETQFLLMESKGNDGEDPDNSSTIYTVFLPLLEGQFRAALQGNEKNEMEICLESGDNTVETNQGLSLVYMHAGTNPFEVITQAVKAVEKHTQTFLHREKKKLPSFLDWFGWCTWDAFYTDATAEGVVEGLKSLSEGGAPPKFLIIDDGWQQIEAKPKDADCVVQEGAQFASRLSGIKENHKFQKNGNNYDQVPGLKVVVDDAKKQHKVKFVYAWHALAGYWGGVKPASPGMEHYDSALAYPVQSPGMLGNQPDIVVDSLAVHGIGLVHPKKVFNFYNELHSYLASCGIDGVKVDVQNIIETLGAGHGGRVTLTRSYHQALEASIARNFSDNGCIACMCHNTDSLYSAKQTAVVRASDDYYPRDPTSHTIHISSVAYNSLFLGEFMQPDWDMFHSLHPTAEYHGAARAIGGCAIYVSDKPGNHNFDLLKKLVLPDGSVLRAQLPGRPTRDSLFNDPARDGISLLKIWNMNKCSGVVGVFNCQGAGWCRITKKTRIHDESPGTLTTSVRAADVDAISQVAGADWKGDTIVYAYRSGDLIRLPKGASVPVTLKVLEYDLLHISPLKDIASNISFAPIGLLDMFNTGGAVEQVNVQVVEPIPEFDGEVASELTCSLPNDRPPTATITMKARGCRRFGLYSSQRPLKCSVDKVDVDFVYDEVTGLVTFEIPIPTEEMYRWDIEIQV
Method: For routine analysis and monitoring the activity in the purification steps, alpha-galactosidase was assayed as described by Smart and Pharr (“Characterization of alpha-galactosidase from cucumber leaves”, Plant Physiology, 66:731-734, 1980), using p-nitrophenyl alpha-galactoside (pNPG) as substrate. Reaction was initiated by adding 50 μl enzyme aliquot to either 200 μl 100 mM pH 5.5 McIlvaine buffer or 100 mM pH 7.5 HEPES buffer, containing 5 mM pNPG at 35 C. The reaction was terminated after 10 min by adding 1 ml of 5% (w/v) Na2CO3 and activity expressed as nmol nitrophenol per min as measured at 410 nm. […] The assay was started by adding 50 μl enzyme preparation at 35 C and terminated after 10 to 20 min by 2 min boiling.
The fractions from the DEAE-Sepharose chromatography which were active at pH 7.5 were pooled and dialyzed against buffer A for 12 h prior to loading onto an HPLC ion exchange chromatography column (Mono-Q HR 5/5, Pharmacia, Uppsala, Sweden), previously equilibrated with buffer A. Bound proteins were eluted with a linear gradient of 0.1 to 0.45 M NaCl and the active fractions were detected using pNPG as substrate at pH 7.5 as described above. […] For the further purification of Form II the active fractions of the peak II were chromatographed on hydrophobic interaction chromatography. The fractions were pooled, brought to 1 M (NH4)2SO4 and loaded on to a hydrophobic interaction column (phenyl-Sepharose CL-4B, 0.5×12 cm, Pharmacia, Uppsala, Sweden) previously equilibrated with buffer A containing 1 M (NH4)2SO4. The protein was eluted with a reverse stepwise gradient from 1 to 0 M (NH4)2SO4 with 50 mM intervals in buffer A. Fractions containing the activity peak were collected and dialyzed for 12 h against buffer A and the dialysate was concentrated by reverse dialysis against solid sucrose. The enzyme, partially purified by hydrophobic interaction chromatography, was used for the characterization of Form II. The active fractions from the hydrophobic interaction column were further purified. Active fractions were separated electrophoretically using a Mini Prep Cell (Bio-Rad Laboratories, Hercules, Calif.) for discontinuous native-PAGE with 7% polyacrylamide, according to manufacturer's instructions. Fractions (0.25 ml/fraction) were assayed at pH 7.5 with pNPG as substrate for the activity. The active fractions were pooled, concentrated by Vivaspin Concentrator (Vivascience LTD, Lincoln, England), and run in a 8% SDS-PAGE. Proteins in the SDS-PAGE were identified using Coomassie Blue staining.

[3] = test system: Cucurbita pepo leaf alkaline alpha-galactosidase ("LIV" enzyme); test: Substrate kinetics of Cucurbita pepo leaf alkaline alpha-galactosidase (Gaudreault and Webb); format: biochemical; conditions: calculated for prior art "LIV" enzyme of Gaudreault and Webb

`OC[C@H]1O[C@H](OC[C@H]2O[C@H](OC[C@H]3O[C@H](O[C@]4(CO)O[C@H](CO)[C@@H](O)[C@@H]4O)[C@H](O)[C@@H](O)[C@@H]3O)[C@H](O)[C@@H](O)[C@H]2O)[C@H](O)[C@@H](O)[C@H]1O` [Stachyose, O-alpha-D-galactopyranosyl-(1-6)-O-alpha-D-galactopyranosyl-(1-6)-O-alpha-D-glucopyranosyl-(1-2)-beta-D-fructofuranoside] showed a Vmax/Km ratio [1] of 0.02, a Km ([1]; Lineweaver-Burk) of 10.5 mM and a Vmax ([1]; Lineweaver-Burk) of 0.23 μmol mg^−1 protein min^−1. For the same compound, the Vmax/Km ratio [2] was 0.61, the Vmax ([2]; Lineweaver-Burk) was 2.2 μmol mg^−1 protein min^−1 and the Vmax/Km ratio [3] was 0.65.
